Measured values reported in patent US8785457B2 (Cellzome Limited, priority 2009, dated 2014).
Read-outs that look alike come from different tables or passages of the source.

Tests used:
mTOR = biological target: T1, mTOR (Homo sapiens, UniProt P42345); assay: mTOR kinobeads assay (competitive binding in Jurkat cell lysate, immunodetection); conditions: kinobeads assay
T1 construct: endogenous in cells; host or cells: Jurkat, clone E6-1 (ATCC TIB-152) cell lysate
Summary of the method: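 IC50 derived from dose-response curves of mTOR captured on immobilized phenylmorpholin-chromen beads, detected by antibody dot blot with infrared fluorescence.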

[1] = biological target: T2, DNA-dependent protein kinase (DNA-PK) (Homo sapiens, UniProt P78527); assay: kinobeads assay, DNA-PK; type: binding; conditions: kinobeads assay
T2 construct: endogenous in cells; host or cells: Jurkat, clone E6-1 (ATCC TIB-152) cell lysate
T2 sequence (P78527 whole entry): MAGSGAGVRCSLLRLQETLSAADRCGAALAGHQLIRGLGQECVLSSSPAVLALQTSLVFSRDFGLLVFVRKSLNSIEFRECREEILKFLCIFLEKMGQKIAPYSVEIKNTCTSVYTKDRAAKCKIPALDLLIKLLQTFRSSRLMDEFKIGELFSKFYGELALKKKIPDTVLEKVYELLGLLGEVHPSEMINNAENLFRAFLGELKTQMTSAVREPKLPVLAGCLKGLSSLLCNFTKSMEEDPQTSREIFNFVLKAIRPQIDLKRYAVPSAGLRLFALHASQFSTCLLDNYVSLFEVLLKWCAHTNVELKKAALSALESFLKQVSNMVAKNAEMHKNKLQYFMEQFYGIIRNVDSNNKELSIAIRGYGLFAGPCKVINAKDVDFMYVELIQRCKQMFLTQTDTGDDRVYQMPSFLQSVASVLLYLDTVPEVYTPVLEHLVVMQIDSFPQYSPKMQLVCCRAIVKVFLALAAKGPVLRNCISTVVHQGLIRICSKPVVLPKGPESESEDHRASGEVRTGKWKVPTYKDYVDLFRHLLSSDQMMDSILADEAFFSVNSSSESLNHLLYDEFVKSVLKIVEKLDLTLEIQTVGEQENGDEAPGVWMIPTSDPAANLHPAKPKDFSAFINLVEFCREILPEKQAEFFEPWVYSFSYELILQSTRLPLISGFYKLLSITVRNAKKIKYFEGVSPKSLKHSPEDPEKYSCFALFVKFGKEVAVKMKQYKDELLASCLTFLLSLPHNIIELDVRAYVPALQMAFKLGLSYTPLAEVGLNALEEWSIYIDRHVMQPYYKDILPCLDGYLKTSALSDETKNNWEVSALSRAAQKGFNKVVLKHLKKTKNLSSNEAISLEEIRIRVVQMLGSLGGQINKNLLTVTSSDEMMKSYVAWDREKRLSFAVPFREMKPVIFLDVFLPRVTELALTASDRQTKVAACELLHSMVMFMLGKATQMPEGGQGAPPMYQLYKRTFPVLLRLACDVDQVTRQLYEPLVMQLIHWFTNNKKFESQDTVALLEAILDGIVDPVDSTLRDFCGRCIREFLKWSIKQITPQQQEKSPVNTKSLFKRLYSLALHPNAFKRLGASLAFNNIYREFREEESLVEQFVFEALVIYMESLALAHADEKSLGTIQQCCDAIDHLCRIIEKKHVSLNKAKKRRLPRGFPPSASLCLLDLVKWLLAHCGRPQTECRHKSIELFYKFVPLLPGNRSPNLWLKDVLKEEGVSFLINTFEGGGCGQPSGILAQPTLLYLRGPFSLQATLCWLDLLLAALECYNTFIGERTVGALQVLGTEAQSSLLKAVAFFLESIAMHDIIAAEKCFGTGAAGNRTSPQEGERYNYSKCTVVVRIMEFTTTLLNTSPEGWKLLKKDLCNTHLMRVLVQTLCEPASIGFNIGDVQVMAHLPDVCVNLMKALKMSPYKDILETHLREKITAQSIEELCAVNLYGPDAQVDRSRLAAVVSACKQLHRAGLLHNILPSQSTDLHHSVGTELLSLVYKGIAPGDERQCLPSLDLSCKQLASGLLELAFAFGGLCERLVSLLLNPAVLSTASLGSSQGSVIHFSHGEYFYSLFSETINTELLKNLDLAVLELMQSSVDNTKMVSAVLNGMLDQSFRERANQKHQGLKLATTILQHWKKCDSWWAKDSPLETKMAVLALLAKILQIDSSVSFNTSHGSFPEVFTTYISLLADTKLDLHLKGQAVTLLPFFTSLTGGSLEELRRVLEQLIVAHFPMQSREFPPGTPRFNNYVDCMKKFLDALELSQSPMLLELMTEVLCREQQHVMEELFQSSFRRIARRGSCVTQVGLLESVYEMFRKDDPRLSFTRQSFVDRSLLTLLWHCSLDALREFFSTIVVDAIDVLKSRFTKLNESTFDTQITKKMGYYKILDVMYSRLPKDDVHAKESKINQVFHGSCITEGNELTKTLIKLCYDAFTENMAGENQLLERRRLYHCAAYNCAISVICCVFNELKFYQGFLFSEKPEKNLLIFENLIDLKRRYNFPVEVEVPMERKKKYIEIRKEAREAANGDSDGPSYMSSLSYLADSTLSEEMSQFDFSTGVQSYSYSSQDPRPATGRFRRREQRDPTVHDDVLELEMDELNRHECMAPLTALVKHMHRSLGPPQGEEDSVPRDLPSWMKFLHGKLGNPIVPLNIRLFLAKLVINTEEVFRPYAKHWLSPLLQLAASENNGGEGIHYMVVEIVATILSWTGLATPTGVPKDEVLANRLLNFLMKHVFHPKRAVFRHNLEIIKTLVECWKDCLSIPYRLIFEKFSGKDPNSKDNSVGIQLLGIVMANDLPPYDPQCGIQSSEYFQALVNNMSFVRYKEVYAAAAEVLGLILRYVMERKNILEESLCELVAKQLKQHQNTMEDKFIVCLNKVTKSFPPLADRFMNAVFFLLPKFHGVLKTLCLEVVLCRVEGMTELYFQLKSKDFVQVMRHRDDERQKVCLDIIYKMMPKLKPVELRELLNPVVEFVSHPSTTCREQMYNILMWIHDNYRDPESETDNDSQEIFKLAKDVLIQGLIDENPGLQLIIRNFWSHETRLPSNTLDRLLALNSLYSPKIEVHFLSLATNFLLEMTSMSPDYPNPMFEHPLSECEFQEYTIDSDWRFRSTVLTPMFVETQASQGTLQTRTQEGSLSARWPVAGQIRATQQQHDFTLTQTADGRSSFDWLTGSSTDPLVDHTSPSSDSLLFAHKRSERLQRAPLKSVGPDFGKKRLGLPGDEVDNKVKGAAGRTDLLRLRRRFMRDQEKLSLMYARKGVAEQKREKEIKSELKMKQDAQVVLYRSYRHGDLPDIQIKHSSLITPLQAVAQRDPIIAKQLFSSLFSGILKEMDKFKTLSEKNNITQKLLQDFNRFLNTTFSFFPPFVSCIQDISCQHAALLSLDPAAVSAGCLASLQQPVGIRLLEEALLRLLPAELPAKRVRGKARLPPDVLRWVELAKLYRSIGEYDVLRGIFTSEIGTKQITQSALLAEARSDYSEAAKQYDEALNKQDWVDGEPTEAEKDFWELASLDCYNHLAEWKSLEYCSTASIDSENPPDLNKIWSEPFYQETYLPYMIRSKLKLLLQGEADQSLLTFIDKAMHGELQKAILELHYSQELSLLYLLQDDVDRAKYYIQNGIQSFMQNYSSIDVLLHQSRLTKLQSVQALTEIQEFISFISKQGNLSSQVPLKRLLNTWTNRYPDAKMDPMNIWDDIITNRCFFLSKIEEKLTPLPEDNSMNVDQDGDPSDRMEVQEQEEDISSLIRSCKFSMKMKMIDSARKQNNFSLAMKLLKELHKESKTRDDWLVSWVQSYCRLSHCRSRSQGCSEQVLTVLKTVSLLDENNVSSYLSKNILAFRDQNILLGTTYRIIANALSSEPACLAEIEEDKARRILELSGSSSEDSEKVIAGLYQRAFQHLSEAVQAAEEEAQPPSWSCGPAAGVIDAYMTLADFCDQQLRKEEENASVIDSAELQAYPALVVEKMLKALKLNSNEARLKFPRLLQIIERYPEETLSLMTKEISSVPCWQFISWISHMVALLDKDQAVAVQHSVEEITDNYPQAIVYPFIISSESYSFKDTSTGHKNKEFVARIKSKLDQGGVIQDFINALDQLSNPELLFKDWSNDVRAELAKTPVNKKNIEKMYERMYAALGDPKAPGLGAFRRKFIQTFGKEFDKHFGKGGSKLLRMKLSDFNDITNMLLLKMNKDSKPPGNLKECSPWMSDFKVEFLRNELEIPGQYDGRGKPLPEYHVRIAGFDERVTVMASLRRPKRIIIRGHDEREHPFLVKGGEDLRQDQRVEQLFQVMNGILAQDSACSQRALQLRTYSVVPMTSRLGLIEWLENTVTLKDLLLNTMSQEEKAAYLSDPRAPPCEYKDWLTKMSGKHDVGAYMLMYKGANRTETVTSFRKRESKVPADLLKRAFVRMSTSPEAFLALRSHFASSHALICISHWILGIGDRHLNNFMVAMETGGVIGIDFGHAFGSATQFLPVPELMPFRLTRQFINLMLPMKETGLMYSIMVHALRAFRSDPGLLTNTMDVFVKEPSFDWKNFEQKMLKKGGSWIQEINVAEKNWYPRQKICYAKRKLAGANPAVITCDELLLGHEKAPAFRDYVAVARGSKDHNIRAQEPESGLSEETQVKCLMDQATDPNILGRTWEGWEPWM
Summary of the method: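 IC50 values came from dose-response curves after test compound (1:3 series) competed with an immobilized phenylmorpholin-chromen affinity matrix for kinases in Jurkat lysate at 5 mg/mL protein. Eluted captured DNA-PK and PI3Kδ were measured by specific-antibody dot blot and infrared imaging. Buffer was Tris pH 7.4, NP40, MgCl2, NaCl, vanadate, DTT, NaF.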

[2] = Table 4, read-out: Inhibition values (IC50) mTor
[3] = Table 6, read-out: Inhibition values (IC50) mTOR
[4] = Table 4, read-out: Inhibition values (IC50) DNA-PK
[5] = Table 6, read-out: Inhibition values (IC50) DNAPK

| IC50 (mTOR; [2]) | IC50 (mTOR; [3]) | IC50 [1, 4] | IC50 [1, 5] | Compound |
| --- | --- | --- | --- | --- |
| < 100 nM | < 100 nM | > 10000 nM | > 10000 nM | CCNC(=O)Nc1ccc(-c2nc3c(c(N4CCOC[C@@H]4C)n2)CN(C=O)C3)cc1 [Example 8, (S)-1-ethyl-3-(4-(6-formyl-4-(3-methylmorpholino)-6,7-dihydro-5H-pyrrolo[3,4-d]pyrimidin-2-yl)phenyl)urea] |
| 100 to 1000 nM | 100 to 1000 nM | > 10000 nM | > 10000 nM | C[C@H]1COCCN1c1nc(-c2ccc(NC(=O)NC3CC3)cc2)nc2c1CNCC2 [Example 11, (S)-1-cyclopropyl-3-(4-(4-(3-methylmorpholino)-5,6,7,8-tetrahydropyrido[4,3-d]pyrimidin-2-yl)phenyl)urea] |
| 100 to 1000 nM | 100 to 1000 nM | > 10000 nM | > 10000 nM | CCNC(=O)Nc1ccc(-c2nc3c(c(N4CCOC[C@@H]4C)n2)CNCC3)cc1 [Example 12, (S)-1-ethyl-3-(4-(4-(3-methylmorpholino)-5,6,7,8-tetrahydropyrido[4,3-d]pyrimidin-2-yl)phenyl)urea] |
| < 100 nM | < 100 nM | > 10000 nM | > 10000 nM | CCNC(=O)Nc1ccc(-c2nc3c(c(N4CCOC[C@@H]4C)n2)CCNC3)cc1 [Example 13, (S)-1-ethyl-3-(4-(4-(3-methylmorpholino)-5,6,7,8-tetrahydropyrido[3,4-d]pyrimidin-2yl)phenyl)urea] |
| < 100 nM | < 100 nM | > 10000 nM | > 10000 nM | C[C@H]1COCCN1c1nc(-c2ccc(NC(=O)NC3CC3)cc2)nc2c1CCNC2 [Example 15, (S)-1-cyclopropyl-3-(4-(4-(3-methylmorpholino)-5,6,7,8-tetrahydropyrido[3,4-d]pyrimidin-2-yl)phenyl)urea] |
| < 100 nM | < 100 nM | > 10000 nM | > 10000 nM | CNC(=O)Nc1ccc(-c2nc3c(c(N4CCOC[C@@H]4C)n2)CCNC3)cc1 [Example 16, (S)-1-methyl-3-(4-(4-(3-methylmorpholino)-5,6,7,8-tetrahydropyrido[3,4-d]pyrimidin-2-yl)phenyl)urea] |
| < 100 nM | < 100 nM | > 10000 nM | > 10000 nM | C[C@H]1COCCN1c1nc(-c2ccc(NC(=O)NC3CC3)cc2)nc2c1CN(C(=O)C1CC1)C2 [Example 17, (S)-1-(4-(6-(cyclopropanecarbonyl)-4-(3-methylmorpholino)-6,7-dihydro-5H-pyrrolo[3,4-d]pyrimidin-2-yl)phenyl)-3-cyclopropylurea] |
| < 100 nM | < 100 nM | > 10000 nM | > 10000 nM | CCNC(=O)Nc1ccc(-c2nc3c(c(N4CCOC[C@@H]4C)n2)CN(C(C)=O)C3)cc1 [Example 18, (S)-1-(4-(6-acetyl-4-(3-methylmorpholino)-6,7-dihydro-5H-pyrrolo[3,4-d]pyrimidin-2-yl)phenyl)-3-ethylurea] |
| 100 to 1000 nM | 100 to 1000 nM | > 10000 nM | > 10000 nM | CCNC(=O)Nc1ccc(-c2nc3c(c(N4CCOC[C@@H]4C)n2)CN(C(=O)c2ccc(F)cc2)C3)cc1 [Example 19, (S)-1-ethyl-3-(4-(6-(4-fluorobenzoyl)-4-(3-methylmorpholino)-6,7-dihydro-5H-pyrrolo[3,4-d]pyrimidin-2-yl)phenyl)urea] |
| < 100 nM | < 100 nM | > 10000 nM | > 10000 nM | CC(=O)N1Cc2nc(-c3ccc(NC(=O)NC4CC4)cc3)nc(N3CCOC[C@@H]3C)c2C1 [Example 20, (S)-1-(4-(6-acetyl-4-(3-methylmorpholino)-6,7-dihydro-5H-pyrrolo[3,4-d]pyrimidin-2-yl)phenyl)-3-cyclopropylurea] |
| < 100 nM | < 100 nM | > 10000 nM | > 10000 nM | CCNC(=O)Nc1ccc(-c2nc3c(c(N4CCOC[C@@H]4C)n2)CN(C(=O)C(C)C)C3)cc1 [Example 21, (S)-1-ethyl-3-(4-(6-isobutyryl-4-(3-methylmorpholino)-6,7-dihydro-5H-pyrrolo[3,4-d]pyrimidin-2-yl)phenyl)urea] |
| 100 to 1000 nM | 100 to 1000 nM | > 10000 nM | > 10000 nM | CCNC(=O)Nc1ccc(-c2nc3c(c(N4CCOC[C@@H]4C)n2)CN(C(=O)C(C)(C)C)C3)cc1 [Example 22, (S)-1-ethyl-3-(4-(4-(3-methylmorpholino)-6-pivaloyl-6,7-dihydro-5H-pyrrolo[3,4-d]pyrimidin-2-yl)phenyl)urea] |
| < 100 nM | < 100 nM | > 10000 nM | > 10000 nM | CCNC(=O)Nc1ccc(-c2nc3c(c(N4CCOC[C@@H]4C)n2)CN(C(=O)C2CC2)C3)cc1 [Example 23, (S)-1-(4-(6-(cyclopropanecarbonyl)-4-(3-methylmorpholino)-6,7-dihydro-5H-pyrrolo[3,4-d]pyrimidin-2-yl)phenyl)-3-ethylurea] |
| 100 to 1000 nM | 100 to 1000 nM | > 10000 nM | > 10000 nM | CCNC(=O)Nc1ccc(-c2nc3c(c(N4CCOC[C@@H]4C)n2)CCN(C(=O)c2ccc(F)cc2)C3)cc1 [Example 24, (S)-1-ethyl-3-(4-(7-(4-fluorobenzoyl)-4-(3-methylmorpholino)-5,6,7,8-tetrahydropyrido[3,4-d]pyrimidin-2-yl)phenyl)urea] |
| 100 to 1000 nM | 100 to 1000 nM | > 10000 nM | > 10000 nM | C[C@H]1COCCN1c1nc(-c2ccc(NC(=O)NC3CC3)cc2)nc2c1CN(CC(C)(C)C)C2 [Example 25, (S)-1-cyclopropyl-3-(4-(4-(3-methylmorpholino)-6-neopentyl-6,7-dihydro-5H-pyrrolo[3,4-d]pyrimidin-2-yl)phenyl)urea] |
| < 100 nM | < 100 nM | > 10000 nM | > 10000 nM | CCNC(=O)Nc1ccc(-c2nc3c(c(N4CCOC[C@@H]4C)n2)CN(C)C3)cc1 [Example 26, (S)-1-ethyl-3-(4-(6-methyl-4-(3-methylmorpholino)-6,7-dihydro-5H-pyrrolo[3,4-d]pyrimidin-2-yl)phenyl)urea] |
| < 100 nM | < 100 nM | > 10000 nM | > 10000 nM | CCNC(=O)Nc1ccc(-c2nc3c(c(N4CCOC[C@@H]4C)n2)CCN(CC)C3)cc1 [Example 27, (S)-1-ethyl-3-(4-(7-ethyl-4-(3-methylmorpholino)-5,6,7,8-tetrahydropyrido[3,4-d]pyrimidin-2-yl)phenyl)urea] |
| < 100 nM | < 100 nM | > 10000 nM | > 10000 nM | CCNC(=O)Nc1ccc(-c2nc3c(c(N4CCOC[C@@H]4C)n2)CN(CC2CC2)C3)cc1 [Example 28, (S)-1-(4-(6-(cyclopropylmethyl)-4-(3-methylmorpholino)-6,7-dihydro-5H-pyrrolo[3,4-d]pyrimidin-2-yl)phenyl)-3-ethylurea] |
| 100 to 1000 nM | 100 to 1000 nM | > 10000 nM | > 10000 nM | CCNC(=O)Nc1ccc(-c2nc3c(c(N4CCOC[C@@H]4C)n2)CN(Cc2ccc(F)cc2)C3)cc1 [Example 29, (S)-1-ethyl-3-(4-(6-(4-fluorobenzyl)-4-(3-methylmorpholino)-6,7-dihydro-5H-pyrrolo[3,4-d]pyrimidin-2-yl)phenyl)urea] |
| < 100 nM | < 100 nM | > 10000 nM | > 10000 nM | C[C@H]1COCCN1c1nc(-c2ccc(NC(=O)NC3CC3)cc2)nc2c1CN(CC1CC1)C2 [Example 30] |
| < 100 nM | < 100 nM | > 10000 nM | > 10000 nM | CCNC(=O)Nc1ccc(-c2nc3c(c(N4CCOC[C@@H]4C)n2)CN(S(C)(=O)=O)C3)cc1 [Example 32, (S)-1-ethyl-3-(4-(4-(3-methylmorpholino)-6-(methylsulfonyl)-6,7-dihydro-5H-pyrrolo[3,4-d]pyrimidin-2-yl)phenyl)urea] |
| < 100 nM | < 100 nM | > 10000 nM | > 10000 nM | CCNC(=O)N1Cc2nc(-c3ccc(NC(=O)NC4CC4)cc3)nc(N3CCOC[C@@H]3C)c2C1 [Example 33, (S)-2-(4-(3-cyclopropylureido)phenyl)-N-ethyl-4-(3-methylmorpholino)-5H-pyrrolo[3,4-d]pyrimidine-6(7H)-carboxamide] |
| < 100 nM | < 100 nM | > 10000 nM | > 10000 nM | CCNC(=O)Nc1ccc(-c2nc3c(c(N4CCOC[C@@H]4C)n2)CCN(C)C3)cc1 [Example 35, (S)-1-ethyl-3-(4-(7-methyl-4-(3-methylmorpholino)-5,6,7,8-tetrahydropyrido[3,4-d]pyrimidin-2-yl)phenyl)urea] |
| < 100 nM | < 100 nM | > 10000 nM | > 10000 nM | CCN1Cc2nc(-c3ccc(NC(=O)NC4CC4)cc3)nc(N3CCOC[C@@H]3C)c2C1 [Example 36, (S)-1-cyclopropyl-3-(4-(6-ethyl-4-(3-methylmorpholino)-6,7-dihydro-5H-pyrrolo[3,4-d]pyrimidin-2-yl)phenyl)urea] |
| < 100 nM | < 100 nM | > 10000 nM | > 10000 nM | CCNC(=O)Nc1ccc(-c2nc3c(c(N4CCOC[C@@H]4C)n2)CCN(CC2CC2)C3)cc1 [Example 37, (S)-1-(4-(7-(cyclopropylmethyl)-4-(3-methylmorpholino)-5,6,7,8-tetrahydropyrido[3,4-d]pyrimidin-2-yl)phenyl)-3-ethylurea] |

| Compound | IC50 (mTOR; [2]) | IC50 (mTOR; [3]) | IC50 [1, 4] | IC50 [1, 5] |
| --- | --- | --- | --- | --- |
| CCOC(=O)N1Cc2nc(-c3ccc(NC(=O)NC4CC4)cc3)nc(N3CCOC[C@@H]3C)c2C1 [Example 34, (S)-ethyl 2-(4-(3-cyclopropylureido)phenyl)-4-(3-methylmorpholino)-5H-pyrrolo[3,4-d]pyrimidine-6(7H)-carboxylate] | < 100 nM | < 100 nM | > 10000 nM | > 10000 nM |
